From patent US4868321A, “Isothiocyanate intermediates” (FMC Corporation, priority 1988, dated 1989)

Legend:
Format in all cases: in vivo
Wheat [1] = assay: Preemergence Herbicidal Activity, Wheat; details: Triticum aestivum, pre-emergence
Excerpt: (§1) The herbicidal data in the following Tables 3 and 4 was obtained in the manner described in PCT published application no. […] In those tables, the test compounds are identified by numbers which correspond to those in Table 1, "kg/ha" is kilograms per hectare, and "% C" is percent control.

Barnyardgrass [2] = assay: Postemergence Herbicidal Activity, Barnyardgrass; details: Echinochloa crus-galli, post-emergence
Excerpt: as §1

Johnsongrass [3] = assay: Postemergence Herbicidal Activity, Johnsongrass; details: Sorghum halepense, post-emergence
Excerpt: as §1

Green Foxtail [4] = assay: Preemergence Herbicidal Activity, Green Foxtail; details: Setaria viridis, pre-emergence
Excerpt: as §1

Field Corn [5] = assay: Postemergence Herbicidal Activity, Field Corn; details: Zea mays, post-emergence
Excerpt: as §1

Cotton [6] = assay: Postemergence Herbicidal Activity, Cotton; details: Gossypium hirsutum, post-emergence
Excerpt: (§2) The herbicidal data in the following Tables 3 and 4 was obtained in the manner described in PCT published application no. WO 85/01939, previously mentioned, usually employing solutions of the herbicidal compound in 50/50 acetone/water mixtures. In those tables, the test compounds are identified by numbers which correspond to those in Table 1, "kg/ha" is kilograms per hectare, and "% C" is percent control.

Rice [7] = assay: Preemergence Herbicidal Activity, Rice; details: Oryza sativa, pre-emergence
Excerpt: as §1

Velvetleaf [8] = assay: Preemergence Herbicidal Activity, Velvetleaf; details: Abutilon theophrasti, pre-emergence
Excerpt: as §2

Field Bindweed [9] = assay: Postemergence Herbicidal Activity, Field Bindweed; details: post-emergence
Excerpt: as §2

Green Foxtail [10] = assay: Postemergence Herbicidal Activity, Green Foxtail; details: Setaria viridis, post-emergence
Excerpt: as §1

Soybean [11] = assay: Postemergence Herbicidal Activity, Soybean; details: Glycine max, post-emergence
Excerpt: as §1

Field Corn [12] = assay: Preemergence Herbicidal Activity, Field Corn; details: Zea mays, pre-emergence
Excerpt: as §1

Cotton [13] = assay: Preemergence Herbicidal Activity, Cotton; details: Gossypium hirsutum, pre-emergence
Excerpt: as §2

Johnsongrass [14] = assay: Preemergence Herbicidal Activity, Johnsongrass; details: Sorghum halepense, pre-emergence
Excerpt: as §1

Morningglory [15] = assay: Postemergence Herbicidal Activity, Morningglory; details: Ipomoea, post-emergence
Excerpt: as §2

Wheat [16] = assay: Postemergence Herbicidal Activity, Wheat; details: Triticum aestivum, post-emergence
Excerpt: as §1

Morningglory [17] = assay: Preemergence Herbicidal Activity, Morningglory; details: Ipomoea, pre-emergence
Excerpt: as §2

Soybean [18] = assay: Preemergence Herbicidal Activity, Soybean; details: Glycine max, pre-emergence
Excerpt: as §1

Field Bindweed [19] = assay: Preemergence Herbicidal Activity, Field Bindweed; details: pre-emergence
Excerpt: as §2

Rice [20] = assay: Postemergence Herbicidal Activity, Rice; details: Oryza sativa, post-emergence
Excerpt: as §1

Velvetleaf [21] = assay: Postemergence Herbicidal Activity, Velvetleaf; details: Abutilon theophrasti, post-emergence
Excerpt: as §2

Barnyardgrass [22] = assay: Preemergence Herbicidal Activity, Barnyardgrass; details: Echinochloa crus-galli, pre-emergence
Excerpt: as §1

CCCn1nnn(-c2cc(NS(=O)(=O)CC)c(Cl)cc2F)c1=O [Compound 51, 1-[4-Chloro-2-fluoro-5-(N--ethylsulfonylamino)phenyl]-4,5-dihydro-4-propyl-5H--tetrazol-5-one]
plant injury at 2000 g/ha (Wheat [1]; 2.0 kg/ha): 20% | pest or weed control at 2000 g/ha (Barnyardgrass [2]; 2.0 kg/ha): 80% | pest or weed control at 2000 g/ha (Johnsongrass [3]; 2.0 kg/ha): 70% | pest or weed control at 2000 g/ha (Green Foxtail [4]; 2.0 kg/ha): 95% | plant injury at 2000 g/ha (Field Corn [5]; 2.0 kg/ha): 60% | plant injury at 2000 g/ha (Cotton [6]; 2.0 kg/ha): 100% | plant injury at 2000 g/ha (Rice [7]; 2.0 kg/ha): 30% | pest or weed control at 2000 g/ha (Velvetleaf [8]; 2.0 kg/ha): 100% | pest or weed control at 2000 g/ha (Field Bindweed [9]; 2.0 kg/ha): 100% | pest or weed control at 2000 g/ha (Green Foxtail [10]; 2.0 kg/ha): 80% | plant injury at 2000 g/ha (Soybean [11]; 2.0 kg/ha): 70% | plant injury at 2000 g/ha (Field Corn [12]; 2.0 kg/ha): 70% | plant injury at 2000 g/ha (Cotton [13]; 2.0 kg/ha): 100% | pest or weed control at 2000 g/ha (Johnsongrass [14]; 2.0 kg/ha): 10% | pest or weed control at 2000 g/ha (Morningglory [15]; 2.0 kg/ha): 100% | plant injury at 2000 g/ha (Wheat [16]; 2.0 kg/ha): 70% | pest or weed control at 2000 g/ha (Morningglory [17]; 2.0 kg/ha): 100% | plant injury at 2000 g/ha (Soybean [18]; 2.0 kg/ha): 20% | pest or weed control at 2000 g/ha (Field Bindweed [19]; 2.0 kg/ha): 100% | plant injury at 2000 g/ha (Rice [20]; 2.0 kg/ha): 60% | pest or weed control at 2000 g/ha (Velvetleaf [21]; 2.0 kg/ha): 100% | pest or weed control at 2000 g/ha (Barnyardgrass [22]; 2.0 kg/ha): 70%

CCS(=O)(=O)N(CC#N)c1cc(-n2nnn(CCCF)c2=O)c(F)cc1Cl [Compound 16]
plant injury at 500 g/ha (Wheat [1]; 0.5 kg/ha): 60% | pest or weed control at 500 g/ha (Barnyardgrass [2]; 0.5 kg/ha): 50% | pest or weed control at 500 g/ha (Johnsongrass [3]; 0.5 kg/ha): 60% | pest or weed control at 500 g/ha (Green Foxtail [4]; 0.5 kg/ha): 100% | plant injury at 500 g/ha (Field Corn [5]; 0.5 kg/ha): 50% | plant injury at 500 g/ha (Cotton [6]; 0.5 kg/ha): 100% | plant injury at 500 g/ha (Rice [7]; 0.5 kg/ha): 70% | pest or weed control at 500 g/ha (Velvetleaf [8]; 0.5 kg/ha): 100% | pest or weed control at 500 g/ha (Field Bindweed [9]; 0.5 kg/ha): 100% | pest or weed control at 500 g/ha (Green Foxtail [10]; 0.5 kg/ha): 70% | plant injury at 500 g/ha (Soybean [11]; 0.5 kg/ha): 70% | plant injury at 500 g/ha (Field Corn [12]; 0.5 kg/ha): 95% | plant injury at 500 g/ha (Cotton [13]; 0.5 kg/ha): 100% | pest or weed control at 500 g/ha (Johnsongrass [14]; 0.5 kg/ha): 90% | pest or weed control at 500 g/ha (Morningglory [15]; 0.5 kg/ha): 100% | plant injury at 500 g/ha (Wheat [16]; 0.5 kg/ha): 60% | pest or weed control at 500 g/ha (Morningglory [17]; 0.5 kg/ha): 100% | plant injury at 500 g/ha (Soybean [18]; 0.5 kg/ha): 80% | pest or weed control at 500 g/ha (Field Bindweed [19]; 0.5 kg/ha): 100% | plant injury at 500 g/ha (Rice [20]; 0.5 kg/ha): 50% | pest or weed control at 500 g/ha (Velvetleaf [21]; 0.5 kg/ha): 100% | pest or weed control at 500 g/ha (Barnyardgrass [22]; 0.5 kg/ha): 90%

CS(=O)(=O)N(c1cc(-n2nnn(CCCF)c2=O)c(F)cc1Br)S(C)(=O)=O [Compound 10, 1-(4-bromo-2-fluoro-5-[bis(N--methylsulfonyl)amino]phenyl]-1,4-dihydro-4-(3-fluoropropyl)-5H--tetrazol-5-one]
plant injury at 1000 g/ha (Wheat [1]; 1.0 kg/ha): 90% | pest or weed control at 1000 g/ha (Barnyardgrass [2]; 1.0 kg/ha): 100% | pest or weed control at 1000 g/ha (Johnsongrass [3]; 1.0 kg/ha): 100% | pest or weed control at 1000 g/ha (Green Foxtail [4]; 1.0 kg/ha): 100% | plant injury at 1000 g/ha (Field Corn [5]; 1.0 kg/ha): 90% | plant injury at 1000 g/ha (Cotton [6]; 1.0 kg/ha): 100% | plant injury at 1000 g/ha (Rice [7]; 1.0 kg/ha): 95% | pest or weed control at 1000 g/ha (Velvetleaf [8]; 1.0 kg/ha): 100% | pest or weed control at 1000 g/ha (Field Bindweed [9]; 1.0 kg/ha): 100% | pest or weed control at 1000 g/ha (Green Foxtail [10]; 1.0 kg/ha): 100% | plant injury at 1000 g/ha (Soybean [11]; 1.0 kg/ha): 95% | plant injury at 1000 g/ha (Field Corn [12]; 1.0 kg/ha): 95% | plant injury at 1000 g/ha (Cotton [13]; 1.0 kg/ha): 100% | pest or weed control at 1000 g/ha (Johnsongrass [14]; 1.0 kg/ha): 95% | pest or weed control at 1000 g/ha (Morningglory [15]; 1.0 kg/ha): 100% | plant injury at 1000 g/ha (Wheat [16]; 1.0 kg/ha): 60% | pest or weed control at 1000 g/ha (Morningglory [17]; 1.0 kg/ha): 100% | plant injury at 1000 g/ha (Soybean [18]; 1.0 kg/ha): 80% | pest or weed control at 1000 g/ha (Field Bindweed [19]; 1.0 kg/ha): 100% | plant injury at 1000 g/ha (Rice [20]; 1.0 kg/ha): 30% | pest or weed control at 1000 g/ha (Velvetleaf [21]; 1.0 kg/ha): 100% | pest or weed control at 1000 g/ha (Barnyardgrass [22]; 1.0 kg/ha): 100%
